Measurements from paper PMC9173638 (PLoS Genetics, 2022).
Values joined by “and” are separate entries in the source; they are usually repeats but may differ in a detail not shown here. Identical values can stand only once. “Also recorded” adds a separate entry of the source. No end group written: not given here.

Legend:
PepF [1] = assay: Screening of sXIP variants for susceptibility to PepF degradation; format: in vitro ADME, Streptococcus salivarius HSISS4; conditions: for percentage of signal loss: peptide 500 nM pre-incubated with PepF 7 nM, 4 h, 37°C vs without PepF, PcomS-luxAB ΔcomS reporter luminescence, mean of technical triplicates; for peptidase resistance in the screening: PepF 7 nM, peptide 500 nM, signal loss compared with native XIP
Protocol: We next investigated which residues of the pheromone are crucial for peptidase cleavage and screened 20 peptides variants with single XIP mutations. We incubated those peptides with PepF at a mid-range concentration previously identified for the native XIP ([PepF] of 7 nM and [XIP] of 500 nM). Next, we added the peptides incubated or not with PepF to the PcomS-luxAB ΔcomS reporter strain and analyzed the percentage of signal loss upon incubation with the peptidase. […] To quantify more accurately the PepF resistance of variants at those two positions, we used the same degradation assay as used for native sXIP and measured the EC50 for each variant (Figs 5A and S5). Since F4W, F4Y and A5I variants were the most resistant, we combined mutations at positions 4 and 5 in a single peptide to increase its robustness to degradation. […] Because our degradation assay is based on an indirect method of quantification through the use of a reporter strain, bias could be introduced by the effect of the mutations on the ComR-pheromone affinity. To rule out this possibility, we measured the ComR-binding properties of the peptides by electrophoretic mobility shift assays (S6 Fig). Since no correlation between peptide-binding to ComR and pheromone sensitivity to degradation could be drawn, we concluded that the luciferase degradation assay reflects the peptide susceptibility to PepF.
Supplementary file pgen.1010198.s004.tif: S4 Fig Screening of sXIP variants for competence activation and susceptibility to PepF degradation. Specific maximum luciferase activity (RLU/OD600) upon peptide addition is plotted against the loss of signal with the peptide pre-incubated with PepF (plotted as a percentage of signal loss). A total number of 20 sXIP variants of the native S. salivarius sXIP (LPYFAGCL) were tested. The different peptides (500 nM) were incubated during 4 h at 37°C with or without PepF (7 nM). The reaction mixture was then 10-fold diluted by addition to an exponential growing culture (CDM) of the reporter strain defective for the genetically-encoded pheromone XIP (PcomS-luxAB ΔcomS). Dots represents mean of technical triplicates. […] Red/blue dots denote peptides discarded/selected for subsequent characterization due to their weak/strong induction of competence. (TIF) Click here for additional data file.

PepF [2] = assay: recombinant PepF in reaction buffer (20 mM Tris HCl, pH 7.0); conditions: S. salivarius HSISS4, 37°C, up to 4 h
PepF [3] = molecular target: PepF (Streptococcus salivarius K12, UniProt J7TQB7); format: in vitro ADME, Streptococcus salivarius HSISS4; conditions: PepF gradient, peptide 500 nM, 4 h, 37°C
Protocol: (§1) Overnight precultures were diluted at a final OD600 of 0.05. A volume of 300 μL of culture samples was transferred in the wells of a sterile covered white microplate with a transparent bottom (Greiner, Alphen a/d Rijn, The Netherlands). These culture samples were supplemented with D-xylose or IPTG if stated or further incubated for 100 min at 37°C before supplementation with sXIP or other peptides variants. Growth (OD600) and luciferase (Lux) activity (expressed in relative light units, RLU) were monitored at 10 min intervals during 6 to 24 h in a Hidex Sense microplate reader (Hidex, Lemminkäisenkatu, Finland). Specific or maximum specific Lux activity were obtained by dividing Lux activity by the OD600 for each measurement and summing all the data obtained over time or selecting the maximum value, respectively. Biological or technical triplicates were then averaged. Statistical analyses of simple and multiple comparisons to the control mean were performed with t-test (unilateral distribution, heteroscedastic) and one-way ANOVA with Dunnett’s test, respectively. For both, standard deviations and P values were calculated.
For PepF purification, the PCR-amplified pepF gene from strain HSISS4 was cloned into the pBAD-covR-STN-ter vector [24]. […] Protein purity was analyzed by SDS-PAGE and concentration was measured using a Nanodrop apparatus (A280 method; ThermoFisher Scientific). […]

PepF [4] = assay: Kinetics of peptide degradation by PepF; format: in vitro ADME, Streptococcus salivarius HSISS4; conditions: PepF 8 nM, peptide 500 nM, 6 h, 37°C
Protocol: Fig 5 Degradation of PepF-resistant sXIP peptides. (A) PepF degradation efficiency for XIP (LPY[F/Y/W][A/M/I/V]GCL) variants. […] Bars denote standard deviations on the EC50 computation. (B) XIP and XIPF4WA5I kinetics of degradation by PepF. PepF (8 nM) and the peptides (500 nM) were incubated 6 hours at 37°C and sampled every hour for analysis. Reaction was stopped by adding 1 mM EDTA and further added to the PcomS-luxAB ΔcomS reporter strain as previously described. Dots show technical triplicates, the line connects mean values with error bars (standard deviation).
(§2) sXIP and derivatives were incubated at 500 nM with PepF at different concentrations ranging from 100 to 0.025 nM during 4 h at 37°C as described in the previous section. 30 μL of the mix was then added to 270 μL of exponential phase culture of a PcomS reporter strain defective for the pheromone (PcomS-luxAB ΔcomS) and maximum luciferase activity was computed as reported above. Maximum values obtained were normalized by the signal recorded for the peptide incubated without the peptidase and enzyme concentration affording half luminescence (EC50) was extrapolated using Graphpad Prism and the non-linear extrapolation equation: Signal=b+(t−b)/(1+IC50/[PepF]^HS) where t stands for top, b for bottom, and HS for Hill-Slope.

PepFSsa = format: in vitro ADME, Streptococcus salivarius HSISS4; conditions: from EC50 values
Protocol: as §2
Supplementary file pgen.1010198.s009.tif: S9 Fig Conservation of PepF in salivarius streptococci and susceptibility of S. vestibularis sXIP to PepF degradation. (A) Alignment of PepF performed with CLC Main Workbench multiple alignment tool (http://www.clcbio.com/products/clc-main-workbench/). PepF from 4 representative strains (i.e. S. salivarius HSISS4, S. thermophilus LMD-9, S. thermophilus LMG18311 and S. vestibularis NTC12167) were used for the alignment. Red, orange, and yellow denote 100%, 75%, and 50% conservation, respectively. The conserved Zinc-binding motif HEXXH is underlined. […]

[5] = system: PcomS-luxAB ΔcomS reporter strain; assay: Screening of sXIP variants for competence activation; format: cell-based, Streptococcus salivarius; conditions: peptide 500 nM incubated 4 h 37°C without PepF, 10-fold diluted into PcomS-luxAB ΔcomS culture (CDM); mean of technical triplicates
Protocol: as §1
Supplementary file pgen.1010198.s004.tif: S4 Fig Screening of sXIP variants for competence activation and susceptibility to PepF degradation. […]

Chain of PepF (Streptococcus salivarius K12, UniProt J7TQB7) (J7TQB7 entry or part of it): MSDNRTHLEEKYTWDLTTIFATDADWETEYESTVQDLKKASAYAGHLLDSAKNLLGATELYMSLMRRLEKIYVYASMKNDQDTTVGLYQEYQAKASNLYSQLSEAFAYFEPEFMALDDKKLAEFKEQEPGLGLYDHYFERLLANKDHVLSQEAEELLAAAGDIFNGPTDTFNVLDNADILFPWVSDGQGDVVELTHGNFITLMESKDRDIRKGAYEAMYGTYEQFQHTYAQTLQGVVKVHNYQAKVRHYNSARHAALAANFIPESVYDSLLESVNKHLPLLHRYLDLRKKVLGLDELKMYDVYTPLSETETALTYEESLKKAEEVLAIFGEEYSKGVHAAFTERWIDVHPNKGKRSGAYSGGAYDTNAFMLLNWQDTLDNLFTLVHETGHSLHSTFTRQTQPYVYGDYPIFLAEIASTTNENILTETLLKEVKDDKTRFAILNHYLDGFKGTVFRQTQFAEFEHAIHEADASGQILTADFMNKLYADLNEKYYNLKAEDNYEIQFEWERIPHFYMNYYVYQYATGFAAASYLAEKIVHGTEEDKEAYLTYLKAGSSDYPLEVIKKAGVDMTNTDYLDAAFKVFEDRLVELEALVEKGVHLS

Row | Substance | percentage of signal loss (PepF [1]) | other results
1 | APYFAGCL [APYFAGCL] | 87.3461% and 90.7518% | –
2 | APYFMGCL [APYFMGCL] | 99.0138% | –
3 | ITILPYFAGCL [ITILPYFAGCL] | 99.5087% | –
4 | LAYFAGCL [LAYFAGCL] | 40.0979% | –
5 | LPAFAGCL [LPAFAGCL] | 83.5452% | –
6 | LPWFAGCL [LPWFAGCL] | 97.3022% | –
7 | LPYAAGCL [LPYAAGCL] | 77.0857% | –
8 | LPYFAACL [LPYFAACL] | 99.6712% | –
9 | LPYFAGAL [LPYFAGAL] | 99.8977% | –
10 | LPYFAGCL | – | cleaved bond (PepF [2]): F4-A5, major; also recorded: A5-G6, major
11 | LPYFAGCL [sXIP, reference compound] | 99.5932% | –
12 | LPYFAICL [LPYFAICL] | 1.804% | –
13 | LPYFGGCL [LPYFGGCL] | 69.5765% | –
14 | LPYFIGCL [LPYFIGCL] | 78.4996% | peptidase resistance in the screening (PepF [1]): higher peptidase resistance
15 | LPYFMGCL [LPYFMGCL] | 85.0947% | peptidase resistance in the screening (PepF [1]): higher peptidase resistance
16 | LPYFMICL [LPYFMICL] | 10.0484% | –
17 | LPYFTGCL [LPYFTGCL] | 97.3896% | –
18 | LPYFVGCL [LPYFVGCL] | 94.8201% | –
19 | LPYWAGCL [LPYWAGCL] | 68.1634% | peptidase resistance in the screening (PepF [1]): higher peptidase resistance
20 | LPYWIGCL [LPYWIGCL] | – | proteolysis by PepF in vitro (PepF [3]): slower proteolysis; degradation kinetics compared to the WT pheromone (PepF [4]): reduced degradation kinetics
21 | LPYYAGCL [LPYYAGCL] | 89.6196% | peptidase resistance in the screening (PepF [1]): higher peptidase resistance
22 | LPYYIGCL [LPYYIGCL] | – | proteolysis by PepF in vitro (PepF [3]): slower proteolysis
23 | VPFFMIYY [sXIPSve] | – | PepF-mediated degradation, fold less efficient compared to XIPSsa/Sth (PepFSsa): ~ 15 fold
24 | _PYFAGCL [sXIP variant of the screening lacking the first residue] | – | Max specific luciferase [5]: 1453.53 RLU/OD600
25 | _PYFMGCL [sXIP variant of the screening lacking the first residue] | 28.6586% | Max specific luciferase [5]: 2144.5 RLU/OD600
